Measurements: patent US12427188B2, “Pyocyanine demethylases and related phenazine degrading agents compositions, methods and systems for interfering with viability of bacteria” (priority 2020, dated 2025)
Like-named read-outs stand apart in the source and are kept apart here.

Tests used:
PA14 = test: Redox cycling, reduction by and survival support of PA14; format: cell-based, P. aeruginosa
[1] = copper chelating agent; cited from earlier work
[2] = oxidized form; literature values (footnotes a, c, d, e); cited from earlier work
[3] = Redox potential E0' vs. NHE of redox-active compounds; format: physicochemical; details: measured in aqueous solution at pH 7 in this study (footnote b)
[4] = system: Pseudomonas aeruginosa aggregate biofilms; test: PodA and tobramycin agar block biofilm assay (ABBA) synergy experiments; format: cell-based; details: for peak PI intensity: PodA10 5 μM, tobramycin 50 μg mL^−1
Experimental: Pseudomonas aeruginosa PodA and tobramycin agar block biofilm assay (ABBA) synergy experiments. Starter Pseudomonas aeruginosa cultures were grown 24 h at 37° C. shaking in LB and the OD500 was determined by diluting cells 1:10. For inoculation into agar, cells were first diluted to an OD of 1.0, followed by a 1:10 dilution for a final OD of 0.1. Molten LB agar (1% w/v) or SCFM agar (1% w/v, made by mixing premade 2× SCFM and 2% agar) was incubated at 44° C., after which 10 μL of OD 0.1 culture was added and mixed into 1 mL of agar, for a final starting OD of 0.001. A portion of the mixture (200 μL) was pipetted into a well of an 8-well glass chamber slide for microscopy (Thermo Fisher Scientific #155409) or into a 2 mL Eppendorf tube for cell viability experiments. ABBAs were incubated at 37° C. for 24 h in a Tupperware lined with wet paper towels. Following growth, ABBAs were washed with 200 μL of HEPES (20 mM, pH 7) to rid planktonic cells growing on the surface of the agar. Treatment stocks (100 μL each) were made by diluting PodA10 and/or tobramycin into HEPES (final concentration of 20 mM, pH 7), with the no treatment control consisting of solely HEPES. Final concentrations of PodA (5 μM) and tobramycin (50 ug mL^−1) were calculated accounting for the total volume of the agar+liquid. ABBAs were treated overnight (14 h), treatment mixture was decanted, and agar blocks were washed with HEPES (400 μL).
For microscopy experiments, cells were incubated for 30 min with 125 μL of diluted propidium iodide (final concentration of 490 μM when added to ABBA, taking into account volume of the agar) and SYTO-9 (final concentration of 16 μM), after which 50 μL of a 1:50 dilution of 5-μm fluorescent beads (Spherotech; CFP-5045-2) was added to each agar block. ABBAs were imaged with a Leica TCS SPE confocal microscope as described elsewhere using 512×512-pixel format (29)[44], with the exception of imaging with a 6 μm step-size in the Z-direction.
For cell viability experiments, 300 μL of HEPES (20 mM, pH 7) was pipetted into each Eppendorf ABBA tube and samples were homogenized on speed 3 of a Bio-Gen PRO200 Homogenizer (PRO Scientific). Samples were briefly spun to rid of air bubbles (<1,000×g) and diluted in series and plated as described above in liquid synergy experiments. Experiments were completed with biological triplicates and was repeated thrice, with a representative figure shown.
ABBA microscopy image analysis. Images were analyzed in FIJI by re-slicing the data set in the XZ dimension followed by a max-intensity Z-projection. The brightness/contrast was auto-normalized in FIJI to the sample treated with only tobramycin. These LUT values were then applied to the other images in the corresponding data sets. Average pixel intensities along the Z-dimensions were found using the “Plot Profile” function in FIJI.
To determine mean pixel intensity and aggregate volume of each ABBA, channels 1 (SYTO-9) and 2 (Propidium Iodide) were combined into a single channel using FIJI. Images were analyzed in Imaris and aggregate masks were created using the “surface” module of the software. Using the surface Imaris wizard, all options under algorithm settings were unchecked. For surface channel settings, channel 3 (representing combined channels) was chosen and default settings were maintained. For threshold settings, the no treatment ABBA sample was analyzed for proper data inclusion and a value of 60 was used for all LB samples, with a threshold value of 40 for all SCFM samples. Lastly, data were excluded 0.1 μm from the XY edges, to exclude aggregates that were cut off due to imaging field. Data were not excluded from the top edge of the ABBA, as images were collected from the surface of the agar using fluorescent beads as described above. Exported statistics were used to plot aggregate volume or mean PI intensity against position of aggregates in the Z-dimension. […]

Molecule | Reduction by PA14? (PA14) | Support survival? (PA14) | # of Redox cycles over 7 days (PA14) | E^0, (vs. NHE) (mV) [2] | also measured
Oc1cccc2nc3ccccc3nc12 [1-Hydroxyphenazine (1-OHPHZ), 1-Hydroxyphenazine] | Yes | Yes | 14 | −174 ^a mV | log of the equilibrium constant βmlh of binding copper [1]: 8.68
O=C1c2ccc(S(=O)(=O)O)cc2C(=O)c2ccc(S(=O)(=O)O)cc21 [2,6-AQDS] | Yes (very slowly) | No | No cycle | −184 ^d mV | 
O=C(O)Cc1cc(O)ccc1O [Homogentisic acid (HMA), Homogentisic acid] |  | No | No cycle |  | E^0, (vs. NHE) (mV) [3]: +306^b mV
CN(C)c1ccc2nc3ccc(=[N+](C)C)cc-3sc2c1 [Methylene blue (MB), Methylene blue] | Yes | No | 3 | +11 mV | E^0, (vs. NHE) (mV) [3]: 0 mV
C[n+]1ccc(-c2cc[n+](C)cc2)cc1 [Paraquat] | No | No | No cycle | −446^e mV | 
O=C(O)c1cccc2nc3ccccc3nc12 [Phenazine-1-carboxylate (PCA), Phenazine-1-carboxylate] | Yes | Yes | 22 | −114 ^a mV | 
C[n+]1c2ccccc2nc2c([O-])cccc21 [Pyocyanin (PYO), Pyocyanin] | Yes | Yes | 31 | −40^a mV | 
NC[C@H]1O[C@H](O[C@H]2[C@H](O)[C@@H](O[C@H]3O[C@H](CO)[C@@H](O)[C@H](N)[C@H]3O)[C@H](N)C[C@@H]2N)[C@H](N)C[C@@H]1O [tobramycin] |  |  |  |  | PI staining versus non-treated samples ([4]; LB ABBA, hypoxia/anoxia from around 300 μm): no significant differences; peak PI intensity ([4]; LB): 151.0 AUs; PI staining versus no treatment controls ([4]; SCFM ABBA, all depths): considerably higher than no treatment controls at all depths; peak PI intensity ([4]; SCFM): 22.6 AUs
PodA: Pyocyanin demethylase of M. fortuitum, SEQ ID NO: 1; in the ABBA experiments the PodA added was PodA10 (protein, listed as Mycobacterium fortuitum) MTGKTKPAIIGGVAITALAAAGLGVWLFTDGRGGRSTTEPVTMTLDVKNDQVAKHDFGKPGMDVGDMDIFSDILSVDGKQVGYDGGACFFTNVTPDNPMTYCELTIHLDAGEIFARSLTPHTLAPFTMAITGGTGEYANSKGELTVSGVATPDEKYELKLTK |  |  |  |  | outside ring PI staining pattern of aggregates ([4]; LB, XY-plane, versus untreated aggregates): abolished; PI staining at depth ([4]; PodA alone, >300 μm in LB (anoxic zone)): did not significantly change
